Results: ChEMBL document CHEMBL3217522, “New substituted aryl esters and aryl amides of 3,4-dihydro-2H-1,2,4-benzothiadiazine 1,1-dioxides as positive allosteric modulators of AMPA receptors” (Medchemcomm, 2011)

Legend:
[1] = target: T1, Glutamate receptor ionotropic, AMPA (Rattus norvegicus) (UniProt P19491+P19492+P19493+P19490); assay: Positive allosteric modulation of AMPA receptor in embryonic rat brain cells assessed as potentiation of membrane depolarization after 3 mins by fluorescence assay relative to AMPA; type: cell-based
[2] = target: T1, Glutamate receptor ionotropic, AMPA (Rattus norvegicus); assay: Positive allosteric modulation of AMPA receptor in embryonic rat brain cells assessed as concentration required for 2-fold increase in AMPA-induced membrane depolarization after 3 mins by fluorescence assay; type: cell-based
[3] = target: Glutamate receptor ionotropic, AMPA (Rattus norvegicus, UniProt P19490+P19491+P19492+P19493); assay: Positive allosteric modulation of AMPA receptor in embryonic rat brain cells assessed as potentiation of AMPA-induced membrane depolarization after 3 mins by fluorescence assay; type: cell-based
[4] = Stability of the compound in PBS at pH 7.4 at 1 mM after 24 hrs at 25 degC HPLC analysis; type: physicochemical; conditions: buffer, pH 7.4, 24 h, 1000 µM
[5] = Stability of the compound in PBS at pH 1 at 1 mM after 24 hrs at 25 degC HPLC analysis; type: physicochemical; conditions: buffer, pH 1, 24 h, 1000 µM

Structure (SMILES)	max activation [1] [%]	Activity [2] [µM]	EC50 [3] [µM]	Stability [4]	Stability [5]
CCN1CNS(=O)(=O)c2cc(C(=O)Oc3ccc(OC)cc3)ccc21	< 200	> 100			
Cc1ccccc1OC(=O)c1ccc2c(c1)S(=O)(=O)NCN2C	410	0.94	1.72		
CN1CNS(=O)(=O)c2cc(C(=O)N(C)c3ccccc3)ccc21	< 200	> 100			
CCCc1ccccc1OC(=O)c1ccc2c(c1)S(=O)(=O)NCN2CC	< 200	> 100			
CCN1CNS(=O)(=O)c2cc(C(=O)Oc3ccc(C)cc3)ccc21	< 200	> 100			
CCN1CNS(=O)(=O)c2cc(C(=O)Oc3cccc(C)c3)ccc21	< 200	> 100			
COc1ccccc1OC(=O)c1ccc2c(c1)S(=O)(=O)NCN2C	410	6.4	7.27		
CCCc1ccc(OC(=O)c2ccc3c(c2)S(=O)(=O)NCN3CC)cc1	< 200	> 100			
CCN1CNS(=O)(=O)c2cc(C(=O)Oc3cccc(OC)c3)ccc21	200	> 35			
CCN(C(=O)c1ccc2c(c1)S(=O)(=O)NCN2C)c1ccccc1	< 200	> 100			
CCN1CNS(=O)(=O)c2cc(C(=O)Oc3ccccc3C)ccc21	330	3.48	3.91		
CCc1ccccc1OC(=O)c1ccc2c(c1)S(=O)(=O)NCN2CC	< 200	> 100			
CCOc1ccccc1OC(=O)c1ccc2c(c1)S(=O)(=O)NCN2CC	> 270	21.6			
CCN1CNS(=O)(=O)c2cc(C(=O)OCc3ccccc3)ccc21	< 200	> 100			
CCc1ccccc1OC(=O)c1ccc2c(c1)S(=O)(=O)NCN2C	< 200	> 100			
CN1CNS(=O)(=O)c2cc(C(=O)Oc3ccccc3OCc3ccccc3)ccc21	< 200	> 100			
CCN1CNS(=O)(=O)c2cc(C(=O)Oc3ccccc3OC)ccc21	380	10.6			
CCN1CNS(=O)(=O)c2cc(C(=O)Oc3cccc(OCc4ccccc4)c3)ccc21	< 200	> 100			
Cc1cccc(OC(=O)c2ccc3c(c2)S(=O)(=O)NCN3C)c1	< 200	> 100			
CCN1CNS(=O)(=O)c2cc(C(=O)Oc3ccccc3OCc3ccccc3)ccc21	< 200	> 100			
CN1CNS(=O)(=O)c2cc(C(=O)Nc3ccccc3)ccc21	< 200	> 100			
CCN1CNS(=O)(=O)c2cc(C(=O)OCCc3ccccc3)ccc21	< 200	> 100			
COc1ccccc1OC(=O)c1ccc2c(c1)S(=O)(=O)NCN2	< 200	> 100			
CN1CNS(=O)(=O)c2cc(C(=O)Oc3ccccc3)ccc21	550	3.66	3.65	Stable	Stable
CCN1CNS(=O)(=O)c2cc(C(=O)Nc3ccccc3)ccc21	< 200	> 100			
CCOc1ccccc1OC(=O)c1ccc2c(c1)S(=O)(=O)NCN2C	> 360	7.08			
